# Test results as given in patent US12692532B2, “Compounds and methods for amine oxidase imaging” (ETH ZURICH, priority 2019, dated 2026).
# Non-standard residues stand in square brackets, D forms with d. Residues, ends and D or L forms follow the SMILES beside them. *: point of attachment. X1 = Cc1c(CC(=O)*)c(=O)oc2c(F)c(OCCCN)c(F)cc12; X2 = Cc1c(CC(=O)*)c(=O)oc2c(F)c(O)c(F)cc12; dCha = N[C@H](CC1CCCCC1)C(=O)O; Ahx = NCCCCCC(=O)O
# Assays:
# [1] = tested on: MAO A/MAO B in MCF-7 cells; experiment: Confocal microscopy of MCF-7 cells treated with MAO probes; assay type: cell-based; design: blue channel (405 nm) fluorescence of the probe / colocalization with MitoTracker Red (405 nm and 561 nm overlay): dose or concentration left out as unconfirmed
# Protocol: Cell culture: MCF-7 and SY5Y cells were obtained from the Health Protection Agency (www.HPA.org.uk) or the American Type Culture Collection. […] Culture medium DMEM high glucose, F-12KTM, L-glutamine (200 mM), penicillin (10.000 U/mL), streptomycin (10 mg/mL), and trypan blue solution were purchased from Sigma, Invitrogen, ATCC or BioConcept. Trypsin-EDTA (0.05%/0.02%) in Ca2+- and Mg2+-deficient phosphate buffered saline (PBS) (1:250) was purchased from Amimed. PBS (pH 7.4) was purchased from Invitrogen. […] Cell culture flasks as well as serological pipettes were purchased from BD Biosciences and Sarstedt. Ethylenediaminetetraacetic acid (EDTA) was purchased from Sigma-Aldrich. Hoechst 33342 was purchased from Invitrogen. MitoTracker Red mitochondrial staining dye and live cell imaging solution were purchased from ThermoFisher.
# Confocal Microscopy: Fluorescence images of cells were collected using a Nikon Eclipse T1 microscope equipped with a Yokogawa spinning-disk confocal scanner unit CSU-W1-T2, two sCMOS cameras (Orca Flash 4.0 V2) and a LUDL BioPrecision2 stage with piezo focus. Emission in the blue channel was filtered with a 450/50 bandpass filter, emission in the green channel was filtered with a 525/50 bandpass filter and emission in the far-red channel with a 700/75 bandpass filter. Fluorescence images were obtained using an oil-immersion objective with a magnification of 100×1.49 CFI Apo TIRF. The microscope was operated using VisiVIEW (Metamorph).
# Prior to the measurement, cells were seeded at a density of 10′000 cells/well in ibidi 8-well plates and were grown for 1 day in DMEM (10% FCS) at 37° C. Afterwards cells were washed with PBS and fresh DMEM was added. Compounds were added to the cells as stock solutions in PBS to reach the final […] concentration. […] Cells were washed with PBS and the live cell imaging solution (200 μL) was added. The live cells were then immediately examined on a confocal microscope (Vistron Spinning Disk). For detection of the coumarin-activation a laser line 405 nm and for MitoTracker a laser line of 561 nm was used.
# [2] = tested on: amine-oxidase (LOX) in skin wound; experiment: In vivo intradermal administration to mice, histological analysis of skin wound; conditions: for fluorescence in cross section of wound after in vivo administration: 100 μM, 50 μL intradermally, skin harvested after five days
# Protocol: Animals: Mice were housed and fed according to Swiss guidelines and all animal experiments were approved by the local veterinary authorities (Kantonales Veterinäramt Zürich). All mice used for these experiments are on a C57BL/6 background. Administration of Compounds 3, 4 and 5 into skin: Peptide solutions at 100 μM were brought to room temperature for 30 min. Male or female mice at 8 weeks of age were anesthetized by intraperitoneal injection of ketamine/xylazine (100 mg ketamine/5-10 mg xylazine per kg body weight), skin shaved and an injection of 50 μL was made intradermally into the back skin. Mice were housed for an additional five days and then skin harvested for histological analysis.
# Skin tissue used for histology was harvested and immediately embedded and frozen in tissue freezing Medium® (Leica Biosystems, Wetzlar, Germany). Tissue sections (7 μM) were fixed using ice-cold acetone for 10 min at −20° C. and stained with propidium iodide to visualize nuclei. Images were taken using a 20× objective. For immunofluorescent analysis of collagen, antibodies against collagen I (Southern Biotech, Birmingham, AL, USA; 1310-01) or collagen III (Abcam, Cambridge, UK, ab7778) were used. Fixed tissue sections were incubated with 1% bovine serum albumin (BSA) in PBS for 30 min followed by collagen I (1:400 dilution in 1% BSA) or collagen III (1:800 dilution in 1% BSA) antibodies for 60 min at room temperature. After washing (3×5 min PBS), secondary antibodies (anti-rabbit AF488 (711-547-003) or anti-goat AF488 (705-545-147), Jackson ImmunoResearch) were incubated on the tissues for 30 min at room temperature (both at 1:400 dilution in 1% BSA) and nuclei visualized using propidium iodide. All images were taken using a 20× objective.
# [3] = Absorption and emission spectroscopy, quantum yield; assay type: physicochemical; conditions: excitation wavelength used for the emission scans of FIG. 2
# Protocol: Absorption and emission spectroscopy. UV-visible spectra were obtained with a Cary-500 Scan spectrophotometer. The spectra were measured in quartz cuvettes (ThorLabs, CV10Q3500, Newton, NJ USA). Samples were irradiated with an LED transilluminator (Roithner Lasertechnik, LED405-06V, Vienna, Austria) emitting at a wavelength as stated with an incident intensity of ca. 2 mW cm^−2, measured with a power-meter (ThorLabs, PM100D, Newton, NJ USA) equipped with a Si photodiode detector (ThorLabs, S120VC, Newton, NJ USA). Fluorescence spectroscopy was measured in a Fluorolog 3 fluorimeter (Horiba Jobin-Yvon, Germany) fluorimeter with a cuvette sample changer for quartz cuvettes (ThorLabs, CV10Q3500F-E, Newton, NJ USA). All measurements were conducted at 25° C. in 50 mM PBS pH 7.4 buffer solution under red light for ambient illumination to avoid photoactivation.
# [4] = tested on: LOX activity in mouse tissue homogenate; experiment: Ex vivo fluorescence assay of amine oxidase (LOX) activity in mouse tissue homogenate; assay type: biochemical; conditions: for fluorescent signal (RFU) with skin homogenate, comparison with oLOX probe: 10 μM, 24 h at 37° C., each at its absorbance and emission maximum
# Protocol: (§1) Fluorescence experiments for determining amine oxidase activity of a given enzyme are conducted using a fluorescence plate reader and a standard 96-well black polystyrene plate with a clear flat bottom. To the plate 150 μL of the following solutions are added to individual wells, e.g. with at least three replicates: buffer (e.g. 25 mM at pH 7.5), a solution in buffer of the amine-oxidase reactive probe, e.g. Compound 2, (e.g. at 100 μM), a buffered solution of the sample containing an amine-oxidase at the desired concentration(s) (e.g. 40 μg/mL), and a buffered solution of the sample containing amine-oxidases with addition of the probe, e.g. Compound 2, (e.g. at 100 μM). The plate is incubated in the dark at 37° C. for a period of time between 15 min and 24 hours before measurements are taken. Fluorescence is measured by exciting the unmasked probe at the absorbance maximum (e.g. 360 nm) or at 405 nm, and measuring the fluorescence at the emission maximum of the probe, for example at 460 nm. Enzyme activity is observed as fluorescence measured relative to the untreated controls, for example as expressed in relative fluorescent units (RFUs). […] Any change, optionally any statistically relevant change, in fluorescence relative to the untreated controls is indicative of amine oxidase activity.
# Skin tissue used for enzymatic analysis of LOX activity was harvested (1 cm×1 cm) and placed in 2 ml of ice-cold PBS. Skin tissue was homogenized using an Ultra-TURRAX homogenizer (KA®-Werke GmbH & CO. KG, Staufen, Germany) and samples were spun at 2000×g to pellet out tissue debris. The supernatant was further purified using a 0.2 μm filter. Tissue homogenates were then evaluated with regard to total in solution protein retrieval using a nanospec absorbance measurement standardized to BSA at 1 mg/mL (Pierce™, Thermo Fisher Scientific Inc, Waltham, USA). Homogenates were diluted to appropriate concentrations (e.g. 1 mg/ml total protein) with 25 mM PIPES, 0.5% Triton X-100 (Sigma Aldrich, St Louis, […], USA) and pre-incubated with the probe (10 μM or 100 μM) at 37° C. in the dark for the designated period of time prior to fluorescence measurements. The resultant fluorescence was then measured using a Tecan Spark 10M Multi-Mode Microplate Reader (Tecan, Männedorf, Switzerland) at ambient temperature with a filter for excitation/emission (e.g. 405/460 nm respectively) as defined for the experiment. Activity is observed as fluorescence measured, and is expressed in relative fluorescent units (RFUs). Graphical presentation and statistical analysis were carried out using Graphpad Prism 7 software, (GraphPad Software, Inc., San Diego, USA.) with statistical significance determined as p<0.05.
# [5] = biological target: T1, recombinant human monoamine oxidase B (MAO-B) (Homo sapiens, UniProt P27338); experiment: Fluorescence assay with recombinant monoamine oxidase B; assay type: biochemical; conditions: 100 μM, 2 h at 37° C., Ex/Em 405/460 nm
# T1 sequence (P27338 1-520): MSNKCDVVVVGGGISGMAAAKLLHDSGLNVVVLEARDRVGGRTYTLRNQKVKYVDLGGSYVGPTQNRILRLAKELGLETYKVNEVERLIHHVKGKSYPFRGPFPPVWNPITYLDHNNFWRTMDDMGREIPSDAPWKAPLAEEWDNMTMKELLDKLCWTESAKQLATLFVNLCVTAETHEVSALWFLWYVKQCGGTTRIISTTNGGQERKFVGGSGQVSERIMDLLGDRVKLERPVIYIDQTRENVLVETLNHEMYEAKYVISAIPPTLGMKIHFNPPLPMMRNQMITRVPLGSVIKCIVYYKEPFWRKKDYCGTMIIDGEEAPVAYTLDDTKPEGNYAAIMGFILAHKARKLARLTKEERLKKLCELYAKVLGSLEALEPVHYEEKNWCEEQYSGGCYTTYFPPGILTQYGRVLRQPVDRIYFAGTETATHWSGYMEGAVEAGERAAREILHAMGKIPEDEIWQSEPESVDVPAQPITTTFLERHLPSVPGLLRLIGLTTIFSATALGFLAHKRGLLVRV
# Protocol: as §1
# SSC13 ear tumor = experiment: Staining of SSC13 ear tumor tissue sections; conditions: 100 μM in PBS, 4 hours at 37° C.
# Protocol: Skin tissue used for histology was harvested and immediately embedded and frozen in tissue freezing Medium® (Leica Biosystems, Wetzlar, Germany). Tissue sections (7 uM) were treated by the addition of 50 μL of each compound at 100 μM in PBS (Compounds 3, 4, 5, or 6) by pipette to completely cover the surface of the section, incubated at 37° C. for 4 hours in the dark, and washed 2× with PBS. Sections were fixed using ice-cold acetone for 10 min at −20° C. and stained with propidium iodide to visualize nuclei. Images were taken using a 20× objective.
# For immunofluorescent analysis of collagen, antibodies against collagen I (Southern Biotech, 1310-01) or collagen III (Abcam, ab7778) were used. Fixed tissue sections were incubated with collagen I or collagen III antibodies for 60 min at room temperature. After washing, secondary antibodies (anti-rabbit AF488 (711-547-003) or anti-goat AF488 (705-545-147), Jackson ImmunoResearch) were incubated on the tissues for 30 min at room temperature and nuclei visualized using propidium iodide. All images were taken using a 20× objective.
# [6] = 1 h pretreatment with Selegiline, then 10 mM probe 1 h
compound,measurement,setting,value
"Cc1c(CC(=O)NCCCCCC(=O)N[C@H](CC2CCCCC2)C(=O)N[C@H](CCCNC(=N)N)C(=O)N[C@H](CC2CCCCC2)C(=O)N[C@H](CCCNC(=N)N)C(=O)N[C@H](CC2CCCCC2)C(=O)N[C@H](CCCNC(=N)N)C(N)=O)c(=O)oc2c(F)c(OCCCN)c(F)cc12 [peptide MAO probe, 1-Ahx-[Char]3—NH2] ({X1-Ahx}-[dCha][dR][dCha][dR][dCha][dR]-NH2)",blue channel (405 nm) fluorescence of the probe after MAO-B inhibitor,[1]; [6],very little fluorescence
same,colocalization with MitoTracker Red after MAO-B inhibitor,[1]; [6],only poor colocalization
"Cc1c(CC(=O)NCCCCCC(=O)N[C@H](CC2CCCCC2)C(=O)N[C@H](CCCNC(=N)N)C(=O)N[C@H](CC2CCCCC2)C(=O)N[C@H](CCCNC(=N)N)C(=O)N[C@H](CC2CCCCC2)C(=O)N[C@H](CCCNC(=N)N)C(N)=O)c(=O)oc2c(F)c(O)c(F)cc12 [PB peptide, PB-Ahx-(ChaR)3—NH2, reference compound] ({X2-Ahx}-[dCha][dR][dCha][dR][dCha][dR]-NH2)",blue channel (405 nm) fluorescence of the probe,[1]; 1 h,fluorescence of the probe
same,colocalization with MitoTracker Red (405 nm and 561 nm overlay),[1]; 1 h,lack colocalization
1-Ahx-[ProHypGly]7—NH2 [Compound 4],fluorescence in cross section of wound after in vivo administration,[2],fluorescence can be clearly visualized at the locations where the peptide-bound probe has been unmasked
"3-carboxy-6,8-difluoro-7-(4-((tert-butoxycarbonyl)amino)propoxy)-coumarin [Compound 2]",absorbance maximum,[3],313 nm
same,"fluorescent signal (RFU) with skin homogenate, comparison with oLOX probe",[4],significant increase in fluorescent signal
same,fluorescent signal (RFU) with heat-denatured skin homogenate,"[4]; 100 μM, 1 h at 37° C., homogenate denatured 1.5 h at 90° C., Ex/Em 405/460 nm",significant decrease in fluorescent signal
same,fluorescent signal (RFU) with BAPN-inhibited skin homogenate,"[4]; 100 μM, 1 h at 37° C., homogenate pretreated with 100 μM BAPN for 2 h, Ex/Em 405/460 nm",significant decrease in fluorescent signal
same,"fluorescent signal (RFU) with lung, skin and liver homogenates","[4]; 100 μM, 18 h at 37° C., Ex/Em 405/460 nm",most significant increase in fluorescent signal was obtained for skin tissue type
same,fluorescent signal (RFU) with MAO-B compared to controls,[5],significant increase in fluorescent signal
"Cl.Cl.NCCCOc1ccc2c(c1)Oc1cc(OCCCN)ccc1C21OC(=O)c2ccccc21 [oLOX, 3′,6′-Bis(3-aminopropoxy)-3H-spiro[2-benzofuran-1,9′-xanthen]-3-one dihydrochloride, reference compound]","fluorescent signal (RFU) with skin homogenate, comparison with oLOX probe",[4],ns
1-[ProHypGly]3-AopProGly-[ProHypGly]3—NH2 [Compound 3],fluorescence in cross section of wound after in vivo administration,[2],fluorescence can be clearly visualized at the locations where the peptide-bound probe has been unmasked
same,localization of the probe in the wound,[2]; FIG. 31 (a) center,localizes the probe to collagen and elastin at the sites of LOX-mediated crosslinking
same,blue fluorescence of the probe in tumor section,SSC13 ear tumor,seen around the periphery of the tumor but is strongest near the side of attachment to the cartilage
"3-carboxy-6,8-difluoro-7-(4-((tert-butoxycarbonyl)amino)propoxy)-coumarin [Compound 1]",HPLC-MS trace of enzymatic conversion,"[4]; after 18 h incubation, UV detection at 254 nm",enzymatic conversion of Compound 1 to PB
1-Ahx-[ProProGly]7—NH2 [Compound 5],fluorescence in cross section of wound after in vivo administration,[2],fluorescence can be clearly visualized at the locations where the peptide-bound probe has been unmasked
